Measured values: the NIST ThermoML archive (doi:10.1021/je8009336)

Legend:
[1] = xn = mol fraction of the nth substance listed; conditions: 313.15 K, 101 kPa, Liquid; for speed of sound: Vibrating Tube Densimeter; for mass density: Vibrating tube method
[2] = refractive index (Na D-line) (dimensionless); xn = mol fraction of the nth substance listed; conditions: 313.15 K, 101 kPa, Liquid, Standard Abbe refractometry

C1CCCC1 [cyclopentane] + CCc1ccccc1
Conditions	mass density, [1] [kg/m3]	refractive index, [2]	speed of sound, [1] [m/s]
x1 = 0.0393	845.5	1.48234	1251.9
x1 = 0.083	841.2	1.47928	1246.4
x1 = 0.1874	830.5	1.4714	1232.9
x1 = 0.2847	820	1.46405	1219.9
x1 = 0.3689	810.5	1.45715	1209.3
x1 = 0.541	789.9	1.44226	1186.8
x1 = 0.6281	778.7	1.43421	1175.5
x1 = 0.687	770.9	1.42853	1168
x1 = 0.7988	755.3	1.41702	1154
x1 = 0.898	740.8	1.40651	1141.9
x1 = 0.9475	733.2	1.40072	1135.9
x1 = 1	725	1.39456	1130

CCc1ccccc1 [ethylbenzene] + C1CCCC1
x2 = 0
Conditions	mass density [kg/m3]	refractive index	speed of sound [m/s]
[1]	849.3	–	1257.3
[2]	–	1.48538	–

c1ccccc1 [benzene] + C1CCCC1
x2 = 0
Conditions	mass density [kg/m3]	refractive index	speed of sound [m/s]
[1]	857.5	–	1230.5
[2]	–	1.48777	–

Cc1ccccc1 [toluene] + C1CCCCC1
x2 = 0
Conditions	mass density [kg/m3]	refractive index	speed of sound [m/s]
[1]	848.2	–	1240.9
[2]	–	1.48509	–

C1CCCCC1 [cyclohexane] + CCc1ccccc1
x1 = 1
Conditions	mass density [kg/m3]	refractive index	speed of sound [m/s]
[1]	759.6	–	1181.7
[2]	–	1.41513	–

CC1CCCCC1 [methylcyclohexane] + Cc1ccccc1
Conditions	mass density, [1] [kg/m3]	refractive index, [2]	speed of sound, [1] [m/s]
x1 = 0.0488	842.1	1.48065	1233.3
x1 = 0.0977	836.1	1.4763	1226
x1 = 0.1967	824.6	1.4675	1212.4
x1 = 0.2969	813.6	1.45909	1200.1
x1 = 0.3751	805.5	1.45314	1191.7
x1 = 0.5049	792.7	1.44348	1179.2
x1 = 0.5986	784	1.43702	1171.5
x1 = 0.7022	774.9	1.43008	1164
x1 = 0.8016	766.8	1.42397	1158.1
x1 = 0.9003	759.1	1.41817	1153.2
x1 = 0.9487	755.5	1.41549	1151.2
x1 = 1	752	1.41272	1149.6

CC1CCCCC1 [methylcyclohexane] + c1ccccc1
Conditions	mass density, [1] [kg/m3]	refractive index, [2]	speed of sound, [1] [m/s]
x1 = 0.0486	849.3	1.48201	1220.3
x1 = 0.0982	841.3	1.47621	1211.2
x1 = 0.1995	826.7	1.46566	1195.3
x1 = 0.2999	813.5	1.45619	1182.5
x1 = 0.4038	801.3	1.44745	1172
x1 = 0.4998	791.3	1.44043	1164.6
x1 = 0.612	780.7	1.43297	1158.1
x1 = 0.7053	772.6	1.42729	1154.2
x1 = 0.7994	765.3	1.42214	1151.5
x1 = 0.8991	758.4	1.41728	1149.9
x1 = 0.953	754.8	1.4148	1149.5
x1 = 1	752	1.41272	1149.6

C1CCCCC1 [cyclohexane] + c1ccccc1
Conditions	mass density, [1] [kg/m3]	refractive index, [2]	speed of sound, [1] [m/s]
x1 = 0.0819	846.2	1.47958	1218.9
x1 = 0.1282	840.2	1.47489	1213.2
x1 = 0.2087	830.1	1.46761	1204.5
x1 = 0.2898	820.5	1.46073	1197
x1 = 0.4018	808.5	1.45171	1188.6
x1 = 0.5047	798.3	1.44414	1183.3
x1 = 0.6058	789.1	1.43724	1179.8
x1 = 0.7	780.9	1.43118	1177.7
x1 = 0.7989	773.2	1.42538	1177.3
x1 = 0.9059	765.7	1.41966	1178.6
x1 = 0.9505	762.7	1.41753	1179.7
x1 = 1	759.6	1.41513	1181.7
